In PMC9091350, “Sodium Tanshinone IIA Sulfonate as a Potent IDO1/TDO2 Dual Inhibitor Enhances Anti-PD1 Therapy for Colorectal Cancer in Mice” (Frontiers in Pharmacology, 2022):
Each block holds one compound with its values, some of them ahead of it.

Tests used:
Type in all cases: biochemical
[1] = target: T1, tryptophan 2,3-dioxygenase 2 (TDO2) (Homo sapiens, UniProt P48775); experiment: purified recombinant enzyme assay, kynurenine absorbance at […] nm
[2] = target: T1, tryptophan 2,3-dioxygenase 2 (TDO2); experiment: purified recombinant enzyme assay, kynurenine absorbance at […] nm; also kynurenine reduction in TDO2-293T cells
[3] = target: T2, indoleamine 2,3-dioxygenase 1 (IDO1) (Homo sapiens, UniProt P14902); experiment: purified recombinant enzyme assay, kynurenine absorbance at […] nm; also kynurenine reduction in IDO1-293T cells
T2 construct: full-length, N-terminal His-AK tag (His-AK-IDO1)
T2 sequence (P14902 whole entry): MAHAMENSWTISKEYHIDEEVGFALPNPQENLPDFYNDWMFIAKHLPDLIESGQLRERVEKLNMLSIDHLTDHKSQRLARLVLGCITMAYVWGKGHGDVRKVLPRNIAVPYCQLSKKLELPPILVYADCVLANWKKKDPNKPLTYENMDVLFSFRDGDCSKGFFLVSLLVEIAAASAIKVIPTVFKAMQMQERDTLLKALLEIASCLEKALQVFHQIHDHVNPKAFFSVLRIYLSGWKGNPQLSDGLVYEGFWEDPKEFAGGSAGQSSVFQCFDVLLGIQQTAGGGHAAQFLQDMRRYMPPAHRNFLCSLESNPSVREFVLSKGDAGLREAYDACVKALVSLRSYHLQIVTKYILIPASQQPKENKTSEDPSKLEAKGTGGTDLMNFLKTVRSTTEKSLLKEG

[4] = target: T2, indoleamine 2,3-dioxygenase 1 (IDO1); experiment: purified recombinant enzyme inhibitor screen (compounds at […]), kynurenine absorbance at […] nm

T1 sequence (P48775 whole entry): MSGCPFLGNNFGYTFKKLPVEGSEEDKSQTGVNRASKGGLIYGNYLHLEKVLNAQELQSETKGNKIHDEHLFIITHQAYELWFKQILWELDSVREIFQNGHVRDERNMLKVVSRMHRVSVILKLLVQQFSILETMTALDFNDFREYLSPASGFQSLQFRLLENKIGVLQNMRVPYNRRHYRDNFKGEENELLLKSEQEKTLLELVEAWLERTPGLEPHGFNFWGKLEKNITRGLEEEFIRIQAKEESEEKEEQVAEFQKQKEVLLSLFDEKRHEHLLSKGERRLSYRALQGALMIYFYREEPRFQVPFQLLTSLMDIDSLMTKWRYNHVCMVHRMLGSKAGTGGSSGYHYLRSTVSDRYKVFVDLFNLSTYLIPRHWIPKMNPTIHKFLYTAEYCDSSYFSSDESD

SMILES: Cc1coc2c1C(=O)C(=O)c1c-2ccc2c1CCCC2(C)C [TSN, tanshinone IIA]
purified recombinant enzyme assay, kynurenine absorbance at 490 nm [1]: TSN only reduced the activity of TDO2 but not IDO1 (Figure 1C)

IC50 [2]: < 10 µM
IC50 [3]: < 10 µM
SMILES: Cc1c(S(=O)(=O)O)oc2c1C(=O)C(=O)c1c-2ccc2c1CCCC2(C)C [STS, Sodium tanshinone IIA sulfonate]

SMILES: COc1c(O)cc2oc3cc(O)c(CC=C(C)C)c(O)c3c(=O)c2c1CC=C(C)C [mangostin]
purified recombinant enzyme inhibitor screen (compounds at 10 μM), kynurenine ab [4]: several compounds, including mangostin and androstenedione, could inhibit the activity of IDO1 (Supplementary Figures S1A,B)
